Measured values taken from patent publication US10058534B2, “Benzothiophene derivatives and compositions thereof as selective estrogen receptor degraders” (NOVARTIS AG, priority 2013, dated 2018).

Tests used:
[1] = target: ERα (Homo sapiens (Human), UniProt P03372); assay: ERα degradation (MCF7 cells), in-cell Western; format: cell-based; conditions: MCF7 cells; for % ERα remaining: remaining ERα protein at 10 μM ligand, relative to DMSO control; for IC50: inflection point of the degradation in response to ligand concentration
Experimental: ERα Degradation (MCF7 Cells)
(§1) The column titled MCF7 IC50 reports the inflection point of the inhibition of transcription in MCF7 cells as described above. Percentage ERα remaining reports the remaining ERα protein measured at 10 μM concentration of the ligand as described above. The column ERα IC50 reports the inflection point of the degradation in response to the ligand concentration.

[2] = target: ER (endogenous, MCF7 cells) (Homo sapiens (Human), UniProt P03372); assay: ER transcription assay (MCF7 cells), ERE-luciferase reporter; format: cell-based; conditions: inflection point of the inhibition of transcription in MCF7 cells; 0.1 nM estradiol, 24 hours; read-out: MCF7 IC50
From the text: ER Transcription Assay (MCF7 Cells)
The ER transcription assay is a reporter assay that is based on the ability of ER to induce transcription from a luciferase reporter gene containing estrogen response elements (EREs) in the promoter/enhancer region. When the reporter gene is transfected in MCF7 cells (containing endogenous ER), transcription is reflected by the level of luciferase expression.
A day before transfection, cells are split into a T75 flask at a cell density of 300,000 cells/mL (10 mL total) and allowed to attach overnight in a humidified CO2 incubator at 37° C.
Approximately 20 ug DNA is mixed in OptiMEM (Invitrogen) to a total volume of 650 μL. Following incubation, the OptiMEM-DNA mixture is added to the OptiMEM-Lipofectin mix and incubated for 15 minutes at 37° C. The DNA-Lipofectin mixture is then added directly to the T75 flask and the flask is returned to the incubator.
Normally, DMSO (used as a vehicle) is included to achieve a final concentration of 0.1% when added to the cells. Transfected cells are trypsinized, resuspended in DMEM/F12/10% charcoal-stripped serum and added to the 96-well plate at 25,000 cells/well in 90 μL of media. The plate is then returned to the incubator for 24 hours.
After incubation with compounds for 24 hours, Firefly and Renilla luciferase activities are measured to determine ER transcriptional activity. Media is removed from 96-well plates by decanting and blotting on paper towels.
One second total read time after a one second delay.
One second total read time after one second delay. If Firefly luciferase signal is high, Renilla assay must be done an hour after the Firefly assay due to incomplete squelching of Firefly signal.
as §1

Chain of ER (endogenous, MCF7 cells) (P03372 whole entry): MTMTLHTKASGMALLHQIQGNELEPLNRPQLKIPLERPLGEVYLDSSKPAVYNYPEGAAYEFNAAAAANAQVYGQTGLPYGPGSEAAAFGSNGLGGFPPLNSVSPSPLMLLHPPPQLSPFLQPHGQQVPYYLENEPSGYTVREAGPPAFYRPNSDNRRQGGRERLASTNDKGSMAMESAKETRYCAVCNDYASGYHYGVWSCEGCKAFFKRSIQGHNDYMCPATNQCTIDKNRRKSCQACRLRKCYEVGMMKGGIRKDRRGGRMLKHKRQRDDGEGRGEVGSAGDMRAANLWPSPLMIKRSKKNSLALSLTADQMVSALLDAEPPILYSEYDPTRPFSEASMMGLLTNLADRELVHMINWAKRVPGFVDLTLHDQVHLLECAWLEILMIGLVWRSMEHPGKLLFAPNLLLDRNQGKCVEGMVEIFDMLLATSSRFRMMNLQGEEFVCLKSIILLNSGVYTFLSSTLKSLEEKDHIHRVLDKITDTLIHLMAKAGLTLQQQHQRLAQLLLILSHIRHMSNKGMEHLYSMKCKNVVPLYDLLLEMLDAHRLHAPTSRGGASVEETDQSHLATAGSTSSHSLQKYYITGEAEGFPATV
Chain of ERα (P03372 whole entry): as above

## N#CCc1ccccc1-c1sc2cc(O)ccc2c1Oc1ccc(/C=C/C(=O)O)cc1 [Example 94, (E)-3-(4-((2-(2-(cyanomethyl)phenyl)-6-hydroxybenzo[b]thiophen-3-yl)oxy)phenyl)acrylic acid]
[1]
  % ERα remaining: 20%
[2]
  IC50: 86 nM

## Cn1nnc(Cc2ccccc2-c2sc3cc(O)ccc3c2Oc2ccc(/C=C/C(=O)O)cc2)n1 [Example 96, (E)-3-(4-((6-hydroxy-2-(2-((2-methyl-2H-tetrazol-5-yl)methyl)phenyl)benzo [b]thiophen-3-yl)oxy)phenyl)acrylic acid]
[1]
  IC50: 1.7 nM
  % ERα remaining: 14%
[2]
  IC50: 212 nM

## O=C(O)/C=C/c1ccc(Oc2c(-c3ccccc3CN3CCC3)sc3cc(O)ccc23)cc1 [Example 97, (E)-3-(4-((2-(2-(azetidin-1-ylmethyl)phenyl)-6-hydroxybenzo[b]thiophen-3-yl)oxy)phenyl)acrylic acid]
[1]
  IC50: 25 nM
  % ERα remaining: 18%
[2]
  IC50: 292 nM

## CC(C)c1cccc(-c2sc3cc(O)ccc3c2Oc2ccc(/C=C/C(=O)O)cc2)c1 [Example 98, (E)-3-(4-((6-hydroxy-2-(3-isopropylphenyl)benzo[b]thiophen-3-yl)oxy)phenyl)acrylic acid]
[1]
  IC50: 6.6 nM
  % ERα remaining: 19%
[2]
  IC50: 382 nM

## O=C(O)/C=C/c1ccc(Oc2c(-c3ccc(F)cc3CN3CCCC3=O)sc3cc(O)ccc23)cc1 [Example 99, (E)-3-(4-((2-(4-fluoro-2-((2-oxopyrrolidin-1-yl)methyl)phenyl)-6-hydroxybenzo[b]thiophen-3-yl)oxy)phenyl)acrylic acid]
[1]
  % ERα remaining: 14%
[2]
  IC50: 544 nM

## Cc1ncccc1-c1sc2cc(O)ccc2c1Oc1ccc(/C=C/C(=O)O)cc1 [Example 100, (E)-3-(4-((6-hydroxy-2-(2-methylpyridin-3-yl)benzo[b]thiophen-3-yl)oxy)phenyl)acrylic acid]
[1]
  IC50: 5.4 nM
  % ERα remaining: 12%
[2]
  IC50: 669 nM

## CC(C)c1ccccc1-c1sc2c(F)c(O)ccc2c1Oc1ccc(/C=C/C(=O)O)cc1 [Example 101, (E)-3-(4-((7-fluoro-6-hydroxy-2-(2-isopropylphenyl)benzo [b]thiophen-3-yl)oxy)phenyl)acrylic acid]
[1]
  IC50: 0.2 nM
  % ERα remaining: 18%
[2]
  IC50: 4.2 nM

## CCCc1nnc(/C=C/c2ccc(Oc3c(-c4ccccc4C(C)C)sc4cc(O)ccc34)cc2)o1 [Example 103, (E)-2-(2-isopropylphenyl)-3-(4-(2-(5-propyl-1,3,4-oxadiazol-2-yl)vinyl)phenoxy)benzo [b]thiophen-6-ol]
[1]
  IC50: 3.3 nM
  % ERα remaining: 31%
[2]
  IC50: 12 nM

## CC(C)c1ccccc1-c1sc2cc(O)ccc2c1Oc1ccc(/C=C/c2nnc(C3CC3)o2)cc1 [Example 104, (E)-3-(4-(2-(5-cyclopropyl-1,3,4-oxadiazol-2-yl)vinyl)phenoxy)-2-(2-isopropylphenyl)benzo [b]thiophen-6-ol]
[1]
  % ERα remaining: 29%
[2]
  IC50: 32 nM

## Cc1nnc(/C=C/c2ccc(Oc3c(-c4ccccc4C(C)C)sc4cc(O)ccc34)cc2)[nH]1 [Example 105, (E)-2-(2-isopropylphenyl)-3-(4-(2-(5-methyl-4H-1,2,4-triazol-3-yl)vinyl)phenoxy)benzo [b]thiophen-6-ol]
[1]
  IC50: 1.1 nM
  % ERα remaining: 25%
[2]
  IC50: 14 nM

## CCCc1nnc(/C=C/c2ccc(Oc3c(-c4ccccc4C(C)C)sc4cc(O)ccc34)cc2)[nH]1 [Example 107, (E)-2-(2-isopropylphenyl)-3-(4-(2-(5-propyl-4H-1,2,4-triazol-3-yl)vinyl)phenoxy)benzo [b]thiophen-6-ol]
[1]
  IC50: 4 nM
  % ERα remaining: 29%
[2]
  IC50: 66 nM

## O=C(O)/C=C/c1ccc(Oc2c(-c3ccccc3CC(F)(F)F)sc3cc(O)ccc23)cc1 [Example 109, (E)-3-(4-((6-hydroxy-2-(2-(2,2,2-trifluoroethyl)phenyl)benzo[b]thiophen-3-yl)oxy)phenyl)acrylic acid]
[1]
  IC50: 0.2 nM
  % ERα remaining: 16%
[2]
  IC50: 12 nM

## CC(F)c1ccccc1-c1sc2cc(O)ccc2c1Oc1ccc(/C=C/C(=O)O)cc1 (stereo not drawn) [Example 111, (E)-3-(4-((2-(2-(1-fluoroethyl)phenyl)-6-hydroxybenzo[b]thiophen-3-yl)oxy)phenyl)acrylic acid]
[1]
  IC50: 0.3 nM
  % ERα remaining: 17%
[2]
  IC50: 25 nM

## CC/C(=C\c1ccc(Oc2c(-c3ccccc3C(C)C)sc3cc(O)ccc23)cc1)C(=O)O [Example 113, (E)-2-(4-((6-hydroxy-2-(2-isopropylphenyl)benzo [b]thiophen-3-yl)oxy)benzylidene) butanoic acid]
[1]
  IC50: 2.2 nM
  % ERα remaining: 24%
[2]
  IC50: 62 nM

## CC/C(=C\c1ccc(Oc2c(-c3ccc(O)cc3)sc3cc(O)ccc23)cc1)C(=O)O [Example 114, (E)-2-(4-((6-hydroxy-2-(4-hydroxyphenyl)benzo [b]thiophen-3-yl)oxy)benzylidene) butanoic acid]
[1]
  IC50: 6.4 nM
  % ERα remaining: 35%
[2]
  IC50: 216 nM

## CC(C)c1ncoc1-c1sc2cc(O)ccc2c1Oc1ccc(/C=C/C(=O)O)cc1 [Example 115, (E)-3-(4-((6-hydroxy-2-(4-isopropyloxazol-5-yl)benzo[b]thiophen-3-yl)oxy)phenyl)acrylic acid]
[1]
  IC50: 5.3 nM
  % ERα remaining: 15%
[2]
  IC50: 267 nM

## C[C@@H](O)c1ccccc1-c1sc2cc(O)ccc2c1Oc1ccc(/C=C/C(=O)O)cc1 [Example 116, (R,E)-3-(4-((6-hydroxy-2-(2-(1-hydroxyethyl)phenyl)benzo[b]thiophen-3-yl)oxy)phenyl)acrylic acid]
[1]
  IC50: 12 nM
  % ERα remaining: 24%
[2]
  IC50: 306 nM

## CC(C)c1ccccc1-c1sc2cc(O)ccc2c1Oc1ccc(/C=C/C(=O)O)nc1 [Example 117, (E)-3-(5-((6-hydroxy-2-(2-isopropylphenyl)benzo [b]thiophen-3-yl)oxy)pyridin-2-yl)acrylic acid]
[1]
  % ERα remaining: 16%
[2]
  IC50: 54 nM

## CC(C)c1ccccc1-c1sc2cc(O)ccc2c1Nc1ccc(/C=C/C(=O)O)cc1 [Example 118, (E)-3-(4-((6-hydroxy-2-(2-isopropylphenyl)benzo [b]thiophen-3-yl)amino)phenyl)acrylic acid]
[1]
  IC50: 2.8 nM
  % ERα remaining: 14%
[2]
  IC50: 68 nM

## CC(C)c1ccccc1-c1sc2cc(O)ccc2c1N(C)c1ccc(/C=C/C(=O)O)cc1 [Example 119, (E)-3-(4-((6-hydroxy-2-(2-isopropylphenyl)benzo [b]thiophen-3-yl)(methyl)amino)phenyl) acrylic acid]
[1]
  IC50: 6.2 nM
  % ERα remaining: 19%
[2]
  IC50: 109 nM

## CC(=O)/C=C/c1ccc(Oc2c(-c3ccc(F)cc3C(F)(F)F)sc3cc(O)ccc23)cc1 [Example 120, (E)-4-(4-((2-(4-fluoro-2-(trifluoromethyl)phenyl)-6-hydroxybenzo[b]thiophen-3-yl)oxy)phenyl)but-3-en-2-one]
[1]
  % ERα remaining: 70%
[2]
  IC50: 5.1 nM

## CC(=O)/C=C/c1ccc(Oc2c(-c3ccc(C(F)(F)F)cc3)sc3cc(O)ccc23)cc1 [Example 121, (E)-4-(4-((6-hydroxy-2-(4-(trifluoromethyl)phenyl)benzo[b]thiophen-3-yl)oxy)phenyl)but-3-en-2-one]
[1]
  % ERα remaining: 56%
[2]
  IC50: 214 nM
